According to patent US6348477B1, “Anti-herpesvirus compounds and methods for identifying, making and using same” (Boehringer Ingelheim(Canada) Ltd., priority 1995, dated 2002):

How the values were obtained:
HSV-1 helicase-primase = molecular target: T1, HSV-1 helicase-primase (Human herpesvirus 1, UniProt P10189+P10236); assay: HSV-1 DNA-dependent ATPase assay (inhibition of HSV-1 helicase-primase); assay type: biochemical; conditions: Group 1 Table 1
T1 construct: made in house; host or cells: Sf21 insect cells triply infected with recombinant baculoviruses
T1 sequence (P10189 whole entry): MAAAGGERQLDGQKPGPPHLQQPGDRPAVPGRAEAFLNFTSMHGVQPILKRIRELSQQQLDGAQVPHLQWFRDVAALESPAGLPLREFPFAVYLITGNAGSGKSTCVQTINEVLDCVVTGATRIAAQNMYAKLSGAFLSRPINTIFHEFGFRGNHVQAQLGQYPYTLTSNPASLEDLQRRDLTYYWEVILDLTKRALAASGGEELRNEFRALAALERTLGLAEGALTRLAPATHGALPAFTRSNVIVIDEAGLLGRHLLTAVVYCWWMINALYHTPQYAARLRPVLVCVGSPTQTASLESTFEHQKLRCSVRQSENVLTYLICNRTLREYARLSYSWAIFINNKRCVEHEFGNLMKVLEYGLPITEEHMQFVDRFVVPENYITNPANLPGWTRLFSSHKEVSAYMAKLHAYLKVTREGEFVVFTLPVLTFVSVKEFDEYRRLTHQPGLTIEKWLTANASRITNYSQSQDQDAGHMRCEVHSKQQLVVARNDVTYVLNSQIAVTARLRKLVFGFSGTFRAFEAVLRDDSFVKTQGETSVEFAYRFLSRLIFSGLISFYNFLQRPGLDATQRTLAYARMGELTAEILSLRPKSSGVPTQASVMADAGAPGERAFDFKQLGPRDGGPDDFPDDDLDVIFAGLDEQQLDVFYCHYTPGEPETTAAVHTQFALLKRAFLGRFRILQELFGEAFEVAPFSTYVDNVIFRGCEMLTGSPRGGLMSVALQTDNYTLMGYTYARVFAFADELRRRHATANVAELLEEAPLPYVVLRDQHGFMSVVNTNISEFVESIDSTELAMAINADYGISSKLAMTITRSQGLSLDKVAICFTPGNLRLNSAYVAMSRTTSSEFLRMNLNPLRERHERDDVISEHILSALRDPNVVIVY
T1 sequence (P10192 whole entry, further chain): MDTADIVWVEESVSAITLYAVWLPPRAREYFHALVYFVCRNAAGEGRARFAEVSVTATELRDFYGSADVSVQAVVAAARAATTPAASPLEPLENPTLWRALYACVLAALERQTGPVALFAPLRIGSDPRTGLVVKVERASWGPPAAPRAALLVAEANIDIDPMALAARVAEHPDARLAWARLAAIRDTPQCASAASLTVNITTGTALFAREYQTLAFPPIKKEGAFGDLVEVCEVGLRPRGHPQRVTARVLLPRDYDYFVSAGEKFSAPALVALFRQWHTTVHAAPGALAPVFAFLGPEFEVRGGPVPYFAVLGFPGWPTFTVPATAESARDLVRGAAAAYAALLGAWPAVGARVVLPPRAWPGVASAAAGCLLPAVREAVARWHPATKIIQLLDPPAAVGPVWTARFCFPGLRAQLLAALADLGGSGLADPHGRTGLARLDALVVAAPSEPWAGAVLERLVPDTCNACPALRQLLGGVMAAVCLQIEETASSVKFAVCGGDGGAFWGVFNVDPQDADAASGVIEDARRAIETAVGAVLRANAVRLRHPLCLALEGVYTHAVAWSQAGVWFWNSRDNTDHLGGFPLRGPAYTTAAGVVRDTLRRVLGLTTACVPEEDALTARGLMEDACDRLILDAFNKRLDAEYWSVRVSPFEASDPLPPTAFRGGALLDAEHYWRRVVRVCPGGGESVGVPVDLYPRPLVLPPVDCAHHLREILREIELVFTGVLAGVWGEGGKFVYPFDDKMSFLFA
T1 sequence (P10236 whole entry): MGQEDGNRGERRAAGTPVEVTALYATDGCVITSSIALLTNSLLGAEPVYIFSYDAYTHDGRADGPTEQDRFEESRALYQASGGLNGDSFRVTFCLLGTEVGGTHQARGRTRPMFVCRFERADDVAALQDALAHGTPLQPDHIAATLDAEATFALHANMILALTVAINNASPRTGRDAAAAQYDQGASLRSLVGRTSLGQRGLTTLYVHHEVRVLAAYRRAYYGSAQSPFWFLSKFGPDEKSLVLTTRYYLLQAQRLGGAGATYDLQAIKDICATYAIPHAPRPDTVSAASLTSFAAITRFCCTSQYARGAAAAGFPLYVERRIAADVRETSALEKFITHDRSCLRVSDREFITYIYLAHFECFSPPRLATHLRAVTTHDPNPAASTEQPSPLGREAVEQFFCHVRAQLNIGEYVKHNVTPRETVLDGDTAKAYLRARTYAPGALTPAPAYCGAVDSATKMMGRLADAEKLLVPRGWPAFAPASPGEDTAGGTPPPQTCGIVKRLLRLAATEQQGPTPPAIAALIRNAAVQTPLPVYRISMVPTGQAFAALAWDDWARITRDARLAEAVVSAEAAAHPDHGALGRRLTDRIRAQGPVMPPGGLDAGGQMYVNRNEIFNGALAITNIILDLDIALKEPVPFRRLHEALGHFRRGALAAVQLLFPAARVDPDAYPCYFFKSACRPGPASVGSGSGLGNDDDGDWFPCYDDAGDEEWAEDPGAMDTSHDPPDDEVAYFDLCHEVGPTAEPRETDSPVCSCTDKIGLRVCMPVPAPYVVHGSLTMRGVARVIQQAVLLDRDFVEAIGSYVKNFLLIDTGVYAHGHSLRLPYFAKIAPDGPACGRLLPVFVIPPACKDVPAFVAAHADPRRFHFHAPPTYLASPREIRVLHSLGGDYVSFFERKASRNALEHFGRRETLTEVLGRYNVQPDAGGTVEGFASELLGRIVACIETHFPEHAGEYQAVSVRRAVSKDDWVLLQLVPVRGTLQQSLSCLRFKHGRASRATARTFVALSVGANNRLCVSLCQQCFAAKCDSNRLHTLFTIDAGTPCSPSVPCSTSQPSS
Excerpt: A) HSV-1 DNA-Dependent ATP Assay (an in Vitro Assay Based on the Inhibition of HSV-1 Helicase-primase).
a) Preparation of enzyme: HSV-1 helicase-primase holoenzyme was produced in triply infected Sf21 cells using recombinant baculoviruses expressing the UL5, UL8 and UL52 helicase-primase subunits, as described by S. Dracheva et al., J. Biol. Chem. 1995, 270, 14148. The crude enzyme was purified by ammonium sulfate precipitation, Source 15Q® chromatography and Sephacryl® S-300 HR gel filtration (both purification systems can be obtained from Pharmacia Biotech Inc., Montreal, Quebec, Canada), see S. Dracheva et al., supra.
b) Assay: The DNA-dependent ATPase assay, described by J. J. Crute et al., Nucleic Acids Res. 1988, 16, 6585, was modified and used to evaluate the capability of the compounds of Group 1-formula 1 to inhibit HSV-1 helicase-primase activity. The reaction mixtures (80 μL each) contained 40 mM 4-(2-hydroxyethyl)-1-piperazineethanesulfonic acid (HEPES, pH 7.5), 10% (v/v) glycerol, 5.5 mM MgCl2, 1 mM DL-dithiothreitol (DTT), 50 μg/mL acetylated bovine serum albumin, 3.3% (v/v) DMSO, 4 mM ATP, 25 μM single-stranded M13 DNA hybridized to double-tailed 68-mer oligonucleotide and 3 μg/mL HSV-1 helicase-primase. After incubation for 20 min at 34°, formation of inorganic phosphate from hydrolysis of ATP was monitored spectrophotometrically at 650 nm using acidic ammonium molybdate/malachite green reagent, P. A. Lanzetta et al., Anal. Biochem. 1979, 100, 95. DNA-dependent ATPase activity was calculated from the net absorbance change in the presence and absence of inhibition.

HSV-1 strain F or KOS = assay: Inhibition of herpes simplex virus (HSV-1) replication in cell culture (BHK-21 cells, glycoprotein C ELISA); assay type: cell-based; conditions: Group 1 Table 1
Method: B) Inhibition of Herpes Simplex Virus (HSV-1) Replication in Cell Culture
Assay: BHK-21 cells clone 13 (ATCC CCL10) were incubated for two days in 850 cm^2 roller bottles (2×10^7 cells/bottle) with α-MEM medium (Gibco Canada Inc., Burlington, Ontario, Canada) supplemented with 8% (v/v) fetal bovine serum (FBS, Gibco Canada, Inc.). The cells were trypsinized and then 3,000 cells in 100 μL of fresh medium were transferred into each well of a 96-well microtiter plate. The cells were incubated at 37° for a period of 3 days to reach a density of 50,000 cells per well. The cells were washed twice with 100 μL of α-MEM supplemented with 2% heat inactivated FBS and incubated for 1-2 hours in 100 μL of the same medium.
Thereafter, the cells were infected with HSV-1 strain F or KOS (multiplicity of infection=0.05 PFU/cell) in 50 μL of α-MEM supplemented with 2% heat inactivated FBS. Following one hour of virus absorption at 37°, the medium was removed and the cells were washed with α-MEM supplemented with 2% heat inactivated FBS (2×100 μL). The cells were incubated with or without 100 μL of the appropriate concentration of test reagent in α-MEM medium supplemented with 2% heat inactivated FBS. After 24 hours of incubation at 37°, the extent of viral replication was determined by an ELISA assay; for instance, the following assay that detects the late glycoprotein C of HSV-1.
Cells were fixed in the microtiter plate with 100 μL of 0.063% glutaraldehyde in phosphate buffered saline for 30 min at room temperature. The microtiter plate was then washed once with casein blocking solution and blocked with 200 μL of the same solution for one hour at room temperature. Thereafter, 100 μL of mAb C11 recognizing the glycoprotein C of HSV-1 (see E. Trybala et al., Journal of General Virology, 1994, 75, 743) was added to each well for two hours at room temperature. The plate was washed three times with phosphate buffered saline containing 0.05% polyoxyethylene (20) sorbitan monooleate. The cells were incubated with 100 μL of sheep anti-mouse IgG horseradish peroxidase for one hour at room temperature in the dark.
The plate was washed three times with 200 μL of the above-noted phosphate buffer saline preparation, and then once with 0.1 M sodium citrate (pH 4.5). Thereafter, 100 μL of orthophenylenediamine dihydrochloride (OPD, Gibco, Canada Inc.) was added to each well. The plate was agitated on a microplate shaker for 30 min in the dark. Color development was monitored at 450 nm using a microplate spectrophotometer.
SAS was used to calculate % inhibition of viral replication and to generate EC50 values.

HCMV (strain AD169) [1] = assay: Inhibition of HCMV replication, ELISA assay (Hs-68 cells, p28); assay type: cell-based, human cytomegalovirus; conditions: Group 1 Table 1; read-out: ELISA CMV EC50
Method: (§1) C) Inhibition of Human Cytomegalovirus (HCMV) replication
(§2) The effect of compounds on the replication of HCMV has been measured by using an ELISA-based assay (ELISA) and a plaque reduction assay (PRA).
(§3) Hs-68 cells (ATCC # CRL 1635) were seeded in 96 well microtiter plates at 10,000 cells/well in 100 μL of DMEM medium (Gibco Canada Inc.) supplemented with 10% fetal bovine serum (FBS, Gibco Canada Inc.). The plates were incubated for 3 days at 37° to allow the cells to reach 80-90% confluency prior to the assay.
The medium was removed from wells by aspiration. The cells then were infected at a multiplicity of infection (MOI) of 0.01 PFU/cell with 50 μL of HCMV (strain AD169, ATCC VR-538) in DMEM medium supplemented with 5% heat inactivated FBS (assay medium). The virus was allowed to adsorb to cells for 2 h at 37°. Following viral adsorption, the medium was removed from the wells by aspiration. The cells were washed twice with 200 μL of assay medium to remove unabsorbed virus. The cells were then incubated with or without 100 μL of appropriate concentrations of test reagent in assay medium. After 8 days of incubation at 37°, the extent of viral replication was determined by an ELISA assay which detects the late structural protein p28 of HCMV.
Eight days after infection, the medium was aspirated from the wells. Non-specific binding sites were blocked by adding 200 μL of phosphate buffered saline containing 1% (w/v) bovine serum albumin (blocking buffer) to each well and incubating the plates for 30 min at room temperature. After removal of the blocking buffer by aspiration, the cells were fixed with 100 μL of cold ethanol-acetone solution (95:5) per well. The plates were placed at −20° for 30 min. The plates were washed 4 times with phosphate buffered saline containing 0.05% (v/v) polyoxyethylene sorbitan monolaurate (Tween 20®). Thereafter, 100 μL of mAb UL99 (Advanced Biotechnologies Inc., #13-130-100) recognizing HCMV protein p28 was added to each wells and plates were incubated for 2 h at room temperature. The plates were washed four times with 200 μL of the above-noted phosphate buffered saline/Tween-20® solution. The cells were then incubated with 100 μL of sheep anti-mouse IgGγ horseradish peroxidase conjugated for 2 h at room temperature. The plates were then washed four times with 200 μL of above-noted phosphate buffered saline/Tween-20®solution. Thereafter, 100 μL of ortho phenylenediamine dihydrochloride (OPD, Gibco Canada Inc.) solution was added to each well and the plates were agitated on a microplate shaker for 30 min in the dark. Color development was monitored at 450 nm using a microplate spectrophotometer.
The SAS program was used to calculate the % inhibition of viral replication and to generate EC50 values.
The EC50 values obtained according to this assay method for certain thiazolylphenyl derivatives of this invention are listed in the following tables under the heading ELISA CMV.

HCMV (strain AD169) [2] = assay: Inhibition of HCMV replication, plaque reduction assay (PRA, Hs-68 cells); assay type: cell-based, human cytomegalovirus; conditions: Group 1 Table 1; read-out: PRA CMV EC50
Method: as §1, §2
as §3, with “( ATCC” for “(ATCC”, “12-well” for “96 well microtiter”, “83,000” for “10,000”, “1 mL” for “100 μL”
The medium was removed from the cells by aspiration. The cells were then infected with approximately 50 PFU of HCMV (strain AD169, ATCC VR-538) in DMEM medium supplemented with 5% inactivated FBS (assay medium). The virus was allowed to adsorb to cells for 2 h at 37°. Following viral adsorption, the medium was removed from the wells by aspiration. The cells were then incubated with or without 1 mL of appropriate concentrations of test reagent in assay medium. After 4 days of incubation at 37°, the medium was exchanged with fresh medium containing test compound and 4 days later the cells were fixed with 1% aqueous formaldehyde and stained with a 2% crystal violet solution in 20% ethanol in water. Microscopic plaques were counted using a stereomicroscope. Drug effects were calculated as a percent reduction in the number of plaques in the presence of each drug concentration compared to the number observed in the absence of drug. Ganciclovir was used as a positive control in all experiments.
The EC50 values obtained according to this assay for certain thiazolyl derivatives of this invention are listed in the following tables under the heading PRA CMV.

[3] = tested on: HSV-1 acyclovir-resistant mutant strain PAA^r5; assay: Acyclovir-resistant HSV-1 PAAr5 cutaneous infection in immunodeficient nu/nu mice, oral; assay type: in vivo; conditions: 100 mg/kg/day oral, tid for 10 days (FIG. 1)
Method: (§4) Animals were cutaneously inoculated with 10^7 PFU of HSV-1 acyclovir resistant mutant viruses. The resulting cutaneous lesions were scored according to a subjective scoring system. The compound of Group 1 (Entry No. 29 in table 1) was administered orally (gavage) in an acidified vehicle (0.033 N aqueous HCl, tid for 10 days). Animals were similarly treated with acyclovir in 0.033 N aqueous HCl or only with the vehicle (0.033 N aqueous HCl). […] The dose-dependent effect of treatment with Entry No. 29 at 25 mg/kg/day (-♦-), 50 mg/kg/day (-▴-), 75 mg/kg/day (-□-), 100 mg/kg/day (-●-) or 125 mg/kg/day (-▪-), compared to treatment with vehicle alone (-∘-), is shown in FIG. 2. The ED50 of Entry No. 29 was about 60 mg/kg/day. Similar experiments were done using the HSV-1 acyclovir-resistant mutant strain dlsptk (FIGS. 3 and 4). […] The dose-dependent effect of treatment with Entry No. 29 at 25 mg/kg/day (-♦-), 50 mg/kg/day (▴-), 75 mg/kg/day (-□-), 100 mg/kg/day (-●-) or 125 mg/kg/day (-▪-), compared to treatment with vehicle alone (-∘-), is shown in FIG. 4. The acyclovir-resistant HSV-1 strains, PAA^r5 and dlsptk, have been described by P. A. Furman et al., J. Virol., 1981, 40, 936 and by D. M. Coen et al., Proc. Natl. Acad. Sci., 1989, 86, 4736, respectively.

[4] = tested on: HSV-1 acyclovir-resistant mutant strain dlsptk; assay: Acyclovir-resistant HSV-1 dlsptk cutaneous infection in immunodeficient nu/nu mice, oral; assay type: in vivo; conditions: 100 mg/kg/day oral, tid for 10 days (FIG. 3)
Method: as §4

Which results are given for `CC(c1ccccc1)N(CC(=O)Nc1ccc(-c2csc(N)n2)cc1)C(=O)C1CCCCC1` (centres unmarked) [Example 53]?
IC50 (HSV-1 helicase-primase): 0.038 µM; EC50 (HSV-1 strain F or KOS): 0.003 µM; EC50 (HCMV (strain AD169) [1]): 3.2 µM; EC50 (HCMV (strain AD169) [2]): 12 µM

Which results are given for `Nc1nc(-c2ccc(NC(=O)CN(CC3CCCCC3)C(=O)c3cccnc3)cc2)cs1` [Example 64]?
IC50 (HSV-1 helicase-primase): 2.5 µM; EC50 (HSV-1 strain F or KOS): 1.7 µM; EC50 (HCMV (strain AD169) [1]): 0.75 µM; EC50 (HCMV (strain AD169) [2]): 20 µM

`CC(c1ccccc1)N(CC(=O)Nc1ccc(-c2csc(N)n2)cc1)C(=O)OC(C)(C)C` (centres unmarked) [Example 89] was tested. Which IC50 (HSV-1 helicase-primase) did it give?
The IC50 was 0.098 µM.

And the EC50 (HSV-1 strain F or KOS)?
The EC50 was 0.036 µM.

What about the EC50 (HCMV (strain AD169) [1]) of the same compound?
Its EC50 is 0.9 µM.

And the EC50 (HCMV (strain AD169) [2])?
Its EC50 is 38 µM.

What does the source list for `Nc1nc2c(ncn2COCCO)c(=O)[nH]1` [acyclovir]?
effect on cutaneous lesions [3]: no effect; effect on cutaneous lesions [4]: no effect
